≈ marks a conversion by molar mass, not a printed value.
Legend:
[1] = test system: Klebsiella pneumoniae; experiment: Antimicrobial activity against Non-ESBL Klebsiella pneumoniae assessed as intermediate isolate by broth microdilution method; format: functional
[2] = test system: Pseudomonas aeruginosa; experiment: Antimicrobial activity against Ceftazidime susceptible Pseudomonas aeruginosa assessed as intermediate isolate by broth microdilution method; format: functional
[3] = test system: Proteus mirabilis; experiment: Antimicrobial activity against ESBL producing Proteus mirabilis assessed as intermediate isolate by broth microdilution method; format: functional
[4] = test system: Escherichia coli; experiment: Antimicrobial activity against ESBL producing Escherichia coli assessed as intermediate isolate by broth microdilution method; format: functional
[5] = test system: Pseudomonas aeruginosa; experiment: Antimicrobial activity against Ceftazidime susceptible Pseudomonas aeruginosa by broth microdilution method; format: functional
[6] = test system: Acinetobacter; experiment: Antimicrobial activity against Acinetobacter assessed as susceptible isolate by broth microdilution method; format: functional
[7] = test system: Citrobacter; experiment: Antimicrobial activity against Citrobacter by broth microdilution method; format: functional
[8] = test system: Pseudomonas aeruginosa; experiment: Antimicrobial activity against Ceftazidime susceptible Pseudomonas aeruginosa assessed as resistant isolate by broth microdilution method; format: functional
[9] = test system: Pseudomonas aeruginosa; experiment: Antimicrobial activity against imipenem non-susceptible Pseudomonas aeruginosa assessed as susceptible isolate by broth microdilution method; format: functional
[10] = test system: Enterobacteriaceae; experiment: Antimicrobial activity against Ceftazidime non-susceptible Enterobacteriaceae by broth microdilution method; format: functional
[11] = test system: Enterobacteriaceae; experiment: Antimicrobial activity against Ceftazidime non-susceptible Enterobacteriaceae assessed as resistant isolate by broth microdilution method; format: functional
[12] = test system: Enterobacter cloacae; experiment: Antimicrobial activity against Enterobacter cloacae with nonderepressed AmpC beta-lactamsae by broth microdilution method; format: functional
[13] = test system: Escherichia coli; experiment: Antimicrobial activity against Escherichia coli assessed as susceptible isolate by broth microdilution method; format: functional
[14] = test system: Serratia marcescens; experiment: Antimicrobial activity against Serratia marcescens assessed as susceptible isolate by broth microdilution method; format: functional
[15] = test system: Pseudomonas aeruginosa; experiment: Antimicrobial activity against Pseudomonas aeruginosa assessed as susceptible isolate by broth microdilution method; format: functional
[16] = test system: Klebsiella pneumoniae; experiment: Antimicrobial activity against Non-ESBL Klebsiella pneumoniae by broth microdilution method; format: functional
[17] = test system: Escherichia coli; experiment: Antimicrobial activity against Non-ESBL Escherichia coli assessed as susceptible isolate by broth microdilution method; format: functional
[18] = test system: Proteus mirabilis; experiment: Antimicrobial activity against Proteus mirabilis assessed as susceptible isolate by broth microdilution method; format: functional
[19] = test system: Enterobacteriaceae; experiment: Antimicrobial activity against Ceftazidime non-susceptible Enterobacteriaceae assessed as susceptible isolate by broth microdilution method; format: functional
[20] = test system: Klebsiella pneumoniae; experiment: Antimicrobial activity against Klebsiella pneumoniae assessed as susceptible isolate by broth microdilution method; format: functional
[21] = test system: Acinetobacter; experiment: Antimicrobial activity against imipenem non-susceptible Acinetobacter by broth microdilution method; format: functional
[22] = test system: Enterobacter cloacae; experiment: Antimicrobial activity against Enterobacter cloacae by broth microdilution method; format: functional
[23] = test system: Pseudomonas aeruginosa; experiment: Antimicrobial activity against Pseudomonas aeruginosa isolated from ICU patient by broth microdilution method; format: functional
[24] = test system: Serratia marcescens; experiment: Antimicrobial activity against Ceftazidime susceptible Serratia marcescens assessed as resistant isolate by broth microdilution method; format: functional
[25] = test system: Pseudomonas aeruginosa; experiment: Antimicrobial activity against Pseudomonas aeruginosa isolated from non-ICU patient assessed as resistant isolate by broth microdilution method
[26] = test system: Proteus mirabilis; experiment: Antimicrobial activity against Non-ESBL Proteus mirabilis by broth microdilution method; format: functional
[27] = test system: Enterobacter cloacae; experiment: Antimicrobial activity against Enterobacter cloacae with nonderepressed AmpC beta-lactamsae assessed as susceptible isolate by broth microdilution method; format: functional
[28] = test system: Enterobacteriaceae; experiment: Antimicrobial activity against ceftazidime-susceptible Enterobacteriaceae assessed as intermediate isolate by broth microdilution method; format: functional
[29] = test system: Pseudomonas aeruginosa; experiment: Antimicrobial activity against Pseudomonas aeruginosa isolated from patient by broth microdilution method
[30] = test system: Pseudomonas aeruginosa; experiment: Antimicrobial activity against Pseudomonas aeruginosa isolated from ICU patient assessed as susceptible isolate by broth microdilution method
[31] = test system: Pseudomonas aeruginosa; experiment: Antimicrobial activity against Pseudomonas aeruginosa isolated from non-ICU patient by broth microdilution method; format: functional
[32] = test system: Klebsiella pneumoniae; experiment: Antimicrobial activity against Non-ESBL Klebsiella pneumoniae assessed as susceptible isolate by broth microdilution method; format: functional
[33] = test system: Klebsiella pneumoniae; experiment: Antimicrobial activity against ESBL producing Klebsiella pneumoniae by broth microdilution method; format: functional
[34] = test system: Streptococcus pneumoniae; experiment: Antimicrobial activity against penicillin-susceptible Streptococcus pneumoniae by broth microdilution method; format: functional; conditions: Streptococcus pneumoniae
[35] = test system: Enterobacteriaceae; experiment: Antimicrobial activity against Enterobacteriaceae assessed as susceptible isolate by broth microdilution method; format: functional
[36] = test system: Pseudomonas aeruginosa; experiment: Antimicrobial activity against Pseudomonas aeruginosa isolated from non-ICU patient by broth microdilution method
[37] = test system: Serratia marcescens; experiment: Antimicrobial activity against Serratia marcescens by broth microdilution method; format: functional
[38] = test system: Citrobacter; experiment: Antimicrobial activity against Citrobacter with nonderepressed AmpC beta-lactamsae by broth microdilution method; format: functional
[39] = test system: Proteus mirabilis; experiment: Antimicrobial activity against Non-ESBL Proteus mirabilis assessed as susceptible isolate by broth microdilution method; format: functional
[40] = test system: Enterobacteriaceae; experiment: Antimicrobial activity against ceftazidime-susceptible Enterobacteriaceae assessed as susceptible isolate by broth microdilution method; format: functional
[41] = test system: Citrobacter; experiment: Antimicrobial activity against Citrobacter assessed as susceptible isolate by broth microdilution method; format: functional
[42] = test system: Escherichia coli; experiment: Antimicrobial activity against Non-ESBL Escherichia coli by broth microdilution method; format: functional
[43] = test system: Citrobacter; experiment: Antimicrobial activity against Citrobacter with derepressed AmpC beta-lactamsae assessed as susceptible isolate by broth microdilution method; format: functional
[44] = test system: Pseudomonas aeruginosa; experiment: Antimicrobial activity against imipenem non-susceptible Pseudomonas aeruginosa by broth microdilution method; format: functional
[45] = test system: Acinetobacter; experiment: Antimicrobial activity against imipenem susceptible Acinetobacter by broth microdilution method; format: functional
[46] = test system: Acinetobacter; experiment: Antimicrobial activity against imipenem non-susceptible Acinetobacter assessed as resistant isolate by broth microdilution method; format: functional
[47] = test system: Enterobacteriaceae; experiment: Antimicrobial activity against Enterobacteriaceae by broth microdilution method; format: functional
[48] = test system: Pseudomonas aeruginosa; experiment: Antimicrobial activity against Pseudomonas aeruginosa by broth microdilution method; format: functional
[49] = test system: Escherichia coli; experiment: Antimicrobial activity against Non-ESBL Escherichia coli assessed as intermediate isolate by broth microdilution method; format: functional
[50] = test system: Pseudomonas aeruginosa; experiment: Antimicrobial activity against imipenem susceptible Pseudomonas aeruginosa assessed as intermediate isolate by broth microdilution method; format: functional
[51] = test system: Proteus mirabilis; experiment: Antimicrobial activity against Proteus mirabilis by broth microdilution method; format: functional
[52] = test system: Staphylococcus aureus; experiment: Antimicrobial activity against methicillin-susceptible Staphylococcus aureus by broth microdilution method; format: functional
[53] = test system: Proteus mirabilis; experiment: Antimicrobial activity against ESBL producing Proteus mirabilis by broth microdilution method; format: functional
[54] = test system: Serratia marcescens; experiment: Antimicrobial activity against Ceftazidime non-susceptible Serratia marcescens assessed as intermediate isolate by broth microdilution method; format: functional

C[C@@H](O)[C@H]1C(=O)N2C(C(=O)O)=C(S[C@@H]3CN[C@H](C(=O)N(C)C)C3)[C@H](C)[C@H]12 [MEROPENEM] showed an Activity [1] of 0%, an Activity [2] of 4.7% and an Activity [3] of 0%. It also gave an Activity [4] of 0%, an MIC50 [5] of 1 µg/mL (≈ 2.61 µM) and an MIC90 [5] of 8 µg/mL (≈ 20.9 µM). The Activity [6] was 80.6%, the MIC50 [7] was 0.06 µg/mL (≈ 0.156 µM) and the MIC90 [7] was 0.12 µg/mL (≈ 0.313 µM). For the same compound, the Activity [8] was 6.5%, the Activity [9] was 42.5% and the MIC50 [10] was 0.12 µg/mL (≈ 0.313 µM). The MIC90 [10] was 0.5 µg/mL (≈ 1.3 µM), the Activity [11] was 1.3% and the MIC50 [12] was 0.06 µg/mL (≈ 0.156 µM). For the same compound, the MIC90 [12] was 0.12 µg/mL (≈ 0.313 µM), the Activity [13] was 100% and the Activity [14] was 99.2%. It also gave an Activity [15] of 85.3%, an MIC50 [16] of 0.06 µg/mL (≈ 0.156 µM) and an MIC90 [16] of 0.06 µg/mL (≈ 0.156 µM). It also gave an Activity [17] of 100%, an Activity [18] of 100% and an Activity [19] of 98%. The Activity [20] was 99.7%, the MIC50 [21] was over 32 µg/mL and the MIC90 [21] was over 32 µg/mL. It also gave an MIC50 [22] of 0.06 µg/mL (≈ 0.156 µM), an MIC90 [22] of 0.25 µg/mL (≈ 0.652 µM) and an MIC50 [23] of 1 µg/mL (≈ 2.61 µM). The MIC90 [23] was 32 µg/mL (≈ 83.4 µM), the Activity [24] was 0.8% and the Activity [25] was 12.4%. It also gave an MIC50 [26] of 0.12 µg/mL (≈ 0.313 µM), an MIC90 [26] of 0.25 µg/mL (≈ 0.652 µM) and an Activity [27] of 99.5%. The Activity [28] was 0%, the Activity [29] was 3.7% and the Activity [30] was 74.1%. The MIC50 [31] was 1 µg/mL (≈ 2.61 µM), the MIC90 [31] was 16 µg/mL (≈ 41.7 µM) and the Activity [32] was 99.8%. For the same compound, the MIC50 [33] was 0.06 µg/mL (≈ 0.156 µM), the MIC90 [33] was 0.25 µg/mL (≈ 0.652 µM) and the MIC50 [34] was at most 0.015 µg/mL. The Activity [35] was 99.8%, the Activity [36] was 83.9% and the MIC50 [37] was 0.12 µg/mL (≈ 0.313 µM). The MIC90 [37] was 0.25 µg/mL (≈ 0.652 µM), the MIC50 [38] was 0.06 µg/mL (≈ 0.156 µM) and the MIC90 [38] was 0.06 µg/mL (≈ 0.156 µM). It also gave an Activity [39] of 100%, an Activity [40] of 99.6% and an Activity [41] of 100%. It also gave an MIC50 [42] of 0.03 µg/mL (≈ 0.0782 µM), an MIC90 [42] of 0.06 µg/mL (≈ 0.156 µM) and an Activity [43] of 100%. It also gave an MIC50 [44] of 8 µg/mL (≈ 20.9 µM), an MIC90 [44] of 32 µg/mL (≈ 83.4 µM) and an MIC50 [45] of 1 µg/mL (≈ 2.61 µM). The MIC90 [45] was 4 µg/mL (≈ 10.4 µM), the Activity [46] was 100% and the MIC50 [47] was 0.06 µg/mL (≈ 0.156 µM). The MIC90 [47] was 0.12 µg/mL (≈ 0.313 µM), the MIC50 [48] was 1 µg/mL (≈ 2.61 µM) and the MIC90 [48] was 16 µg/mL (≈ 41.7 µM). For the same compound, the Activity [49] was 0%, the Activity [50] was 0.7% and the MIC50 [51] was 0.12 µg/mL (≈ 0.313 µM). For the same compound, the MIC90 [51] was 0.25 µg/mL (≈ 0.652 µM), the MIC50 [52] was 0.12 µg/mL (≈ 0.313 µM) and the MIC50 ([52]; Staphylococcus aureus, read-out: MIC50) was 0.06 µg/mL (≈ 0.156 µM). For the same compound, the MIC [53] was 0.12 µg/mL (≈ 0.313 µM) and the Activity [54] was 0%.
